# Results published in ChEMBL document CHEMBL1146935, “A novel series of urea-based peptidomimetic calpain inhibitors” (Bioorg Med Chem Lett, 2006).
# Experiments:
# [1] = target: T1, Calpain-1 catalytic subunit (Sus scrofa, UniProt P35750); test: Inhibition of mu calpain in porcine erythrocyte
# T1 sequence (P35750 whole entry): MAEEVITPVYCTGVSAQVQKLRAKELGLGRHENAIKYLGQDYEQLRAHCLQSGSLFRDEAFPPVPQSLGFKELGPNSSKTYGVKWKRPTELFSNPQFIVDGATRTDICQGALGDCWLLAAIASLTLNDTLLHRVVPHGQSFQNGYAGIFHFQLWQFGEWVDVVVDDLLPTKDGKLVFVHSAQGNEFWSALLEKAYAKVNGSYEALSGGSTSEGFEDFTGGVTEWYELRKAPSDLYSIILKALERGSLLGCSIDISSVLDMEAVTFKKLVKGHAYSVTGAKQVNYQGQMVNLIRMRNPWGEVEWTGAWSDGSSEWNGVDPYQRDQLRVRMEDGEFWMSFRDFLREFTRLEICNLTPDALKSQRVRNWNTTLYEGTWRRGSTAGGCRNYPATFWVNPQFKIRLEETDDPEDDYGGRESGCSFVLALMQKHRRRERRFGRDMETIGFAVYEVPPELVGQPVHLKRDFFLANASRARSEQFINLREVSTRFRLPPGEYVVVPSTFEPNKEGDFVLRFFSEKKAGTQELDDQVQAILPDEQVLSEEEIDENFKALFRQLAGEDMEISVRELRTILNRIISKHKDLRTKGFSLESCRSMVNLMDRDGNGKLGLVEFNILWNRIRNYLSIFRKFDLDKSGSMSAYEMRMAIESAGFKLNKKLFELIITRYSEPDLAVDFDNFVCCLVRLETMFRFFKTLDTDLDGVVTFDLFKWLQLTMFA
# [2] = target: Cathepsin B (Homo sapiens, UniProt P07858); test: Inhibition of cathepsin B from human brain
# [3] = Selectivity for porcine mu calpain over human cathepsin B
# [4] = species on record: Sus scrofa; test: Inhibition of mu calpain in porcine erythrocyte at 100 uM
SMILES,Ki [1] [nM],Ki [2] [nM],Ratio Ki [3],inhibition [4] [%]
CC(C)CN(CCOCc1ccccc1)C(=O)NCC=O,88700,–,–,–
CC(C)NC(=O)N[C@H](C=O)Cc1ccccc1,–,–,–,13
CC(C)CC(C(=O)N[C@H](C=O)Cc1ccccc1)C(=O)OCc1ccccc1 (some centres not stated),15,120,8,–
CC(C)C(C(=O)N[C@H](C=O)Cc1ccccc1)C(=O)OCc1ccccc1 (some centres not stated),10,20,2,–
CC(C)N(Cc1ccccc1)C(=O)N[C@H](C=O)Cc1ccccc1,6820,–,–,–
CC(C)CN(CCOCc1ccccc1)C(=O)N[C@H](C=O)C(C)C,9270,–,–,–

# Next, values leading:
Ki [1] [nM],Ki [2] [nM],Ratio Ki [3],inhibition [4] [%],SMILES
400,–,–,–,CC(C)N(CCCCc1ccccc1)C(=O)N[C@H](C=O)Cc1ccccc1
6690,–,–,–,CN(CCOCc1ccccc1)C(=O)N[C@H](C=O)Cc1ccccc1
150,33300,222,–,CC(C)CN(CCOCc1ccccc1)C(=O)N[C@H](C=O)Cc1ccccc1
6650,–,–,–,O=C[C@H](Cc1ccccc1)NC(=O)N(CCOCc1ccccc1)Cc1ccccc1
230,22100,96.1,–,CC(C)N(CCOCc1ccccc1)C(=O)N[C@H](C=O)Cc1ccccc1
2350,–,–,–,CC(C)N(CCc1ccccc1)C(=O)N[C@H](C=O)Cc1ccccc1
1160,–,–,–,CC(C)N(CCCc1ccccc1)C(=O)N[C@H](C=O)Cc1ccccc1
1150,–,–,–,CCN(CCOCc1ccccc1)C(=O)N[C@H](C=O)Cc1ccccc1
